# Reference: US20040172685A1, “Method of using MAPK4 and orthologues thereof to control plant disease resistance and plant growth” (priority 1999, published 2004)
# Legend:
# PDF1.2 mRNA = assay: MeJA treatment of plants, RNA gel blot of JA-responsive PDF1.2 mRNA; type: in vivo, Arabidopsis
# THI2.1 mRNA = assay: MeJA treatment of plants, RNA gel blot of JA-responsive THI2.1 mRNA; type: in vivo, Arabidopsis; conditions: for THI2.1 mRNA accumulation after MeJA treatment: not shown
# [1] = nahG expressing wild type plants
structure (smiles),measurement,setting,value
"CC/C=C\CC1C(=O)CCC1CC(=O)OC (stereo not drawn) [MeJA, methyl jasmonate]",PDF1.2 mRNA accumulation after MeJA treatment,PDF1.2 mRNA; mpk4/nahG plants,not inducible
same,induction of PDF1.2 expression,"PDF1.2 mRNA; mpk4 mutant plants, sprayed with 50 μM MeJA, harvested after 48 hours",failed to induce
same,PDF1.2 mRNA accumulation after MeJA treatment,PDF1.2 mRNA; [1],induced
same,THI2.1 mRNA accumulation after MeJA treatment,THI2.1 mRNA; mpk4/nahG plants,not inducible
same,induction of THI2.1 expression,"THI2.1 mRNA; mpk4 mutant plants, sprayed with 50 μM MeJA, harvested after 48 hours, data not shown",failed to induce
same,THI2.1 mRNA accumulation after MeJA treatment,THI2.1 mRNA; [1],induced
